Experimental data published in patent US20060069123A1, “Substituted dipiperidine CCR2 antagonists” (priority 2004, published 2006).
Like-named read-outs stand apart in the source and are kept apart here.

Tests used:
[1] = target: T1, CCR2 (Homo sapiens, UniProt P41597)
T1 sequence (P41597 1-360 isoform P41597-2): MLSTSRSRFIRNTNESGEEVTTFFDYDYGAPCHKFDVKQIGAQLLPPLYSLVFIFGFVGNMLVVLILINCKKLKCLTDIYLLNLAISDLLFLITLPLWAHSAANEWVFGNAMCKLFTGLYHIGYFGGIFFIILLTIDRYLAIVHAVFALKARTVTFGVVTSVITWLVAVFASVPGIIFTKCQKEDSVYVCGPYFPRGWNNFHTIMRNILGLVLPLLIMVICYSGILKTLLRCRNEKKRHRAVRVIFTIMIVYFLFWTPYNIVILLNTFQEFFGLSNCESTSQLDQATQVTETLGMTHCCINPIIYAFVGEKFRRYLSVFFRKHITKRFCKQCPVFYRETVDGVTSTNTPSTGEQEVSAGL

[2] = test system: THP-1 cells; assay: MCP-1 Induced Chemotaxis in THP-1 Cells; assay type: cell-based; conditions: Homo sapiens; THP-1 cells, MCP-1 0.01 μg/mL, 3 hours; read-out: Inhibition of MCP-1 Induced Chemotaxis IC50
Experimental: MCP-1 Induced Chemotaxis in THP-1 Cells
MCP-1 induced chemotaxis was run in a 24-well chemotaxis chamber. MCP-1 (0.01 μg/mL) was added to the lower chamber and 100 μL of THP-1 cells (1×10^7 cell/mL) was added to the top chamber. Varying concentrations of test compound were added to the top and bottom chambers. Cells were allowed to chemotax for 3 hours at 37° C. and 5% CO2. An aliquot of the cells that had migrated to the bottom chamber was taken and counted then compared to vehicle.

[3] = test system: THP-1 cells; conditions: Homo sapiens; for IC50: THP-1, read-out: Inhibition of MCP-1 Induced Calcium Ion Influx IC50; for inhibition at 25 µM: THP-1, read-out: Inhibition of MCP-1 Induced Calcium Ion Influx, percent inhibition

SMILES	IC50 [1] [µM]	IC50 [2] [µM]	IC50 [3] [µM]	inhibition at 25 µM ([1]; read-out: Inhibition of MCP-1 Binding, percent inhibition) [%]	inhibition at 25 µM [3] [%]
COc1ccc2[nH]cc(C3CCN(C(C(=O)O)C4CCN(C(=O)/C=C/c5ccc(Cl)c(Cl)c5)CC4)CC3)c2c1 (centres unmarked) [Cpd 47, {1-[(2E)-3-(3,4-dichloro-phenyl)-acryloyl]-piperidin-4-yl}-[4-(5-methoxy-1H-indol-3-yl)-piperidin-1-yl]-acetic acid]	0.01	0.0002	–	–	–
O=C(O)C(C1CCN(C(=O)Nc2ccc(F)c(Cl)c2)CC1)N1CCC(c2c[nH]c3ccccc23)CC1 (centres unmarked) [Cpd 48, [1-(3-chloro-4-fluoro-phenylcarbamoyl)-piperidin-4-yl]-[4-(1H-indol-3-yl)-piperidin-1-yl]-acetic acid]	0.03	0.04	–	–	–
Cc1ccc(NC(=O)N2CCC(C(C(=O)O)N3CCC(c4c[nH]c5ccccc45)CC3)CC2)cc1Cl (centres unmarked) [Cpd 49, [1-(3-chloro-4-methyl-phenylcarbamoyl)-piperidin-4-yl]-[4-(1H-indol-3-yl)-piperidin-1-yl]-acetic acid]	0.025	0.004	–	–	–
O=C(O)C(C1CCN(C(=O)Nc2ccc(Cl)c(C(F)(F)F)c2)CC1)N1CCC(c2c[nH]c3ccccc23)CC1 (centres unmarked) [Cpd 57, [1-(4-chloro-3-trifluoromethyl-phenylcarbamoyl)-piperidin-4-yl]-[4-(1H-indol-3-yl)-piperidin-1-yl]-acetic acid]	0.02	0.003	–	–	–
O=C(O)C(C1CCN(C(=O)Nc2ccc(F)c(C(F)(F)F)c2)CC1)N1CCC(c2c[nH]c3ccccc23)CC1 (centres unmarked) [Cpd 58, [1-(4-fluoro-3-trifluoromethyl-phenylcarbamoyl)-piperidin-4-yl]-[4-(1H-indol-3-yl)-piperidin-1-yl]-acetic acid]	0.09	0.13	–	–	–
Cc1ccc(/C=C/C(=O)N2CCC(C(C(=O)O)N3CCC(c4c[nH]c5ccccc45)CC3)CC2)cc1F (centres unmarked) [Cpd 74, {1-[(2E)-3-(3-fluoro-4-methyl-phenyl)-acryloyl]-piperidin-4-yl}-[4-(1H-indol-3-yl)-piperidin-1-yl]-acetic acid]	0.005	0.006	–	–	–
O=C(O)C(C1CCN(C(=O)/C=C/c2ccc(F)c(Cl)c2)CC1)N1CCC(c2c[nH]c3ccccc23)CC1 (centres unmarked) [Cpd 76, {1-[(2E)-3-(3-chloro-4-fluoro-phenyl)-acryloyl]-piperidin-4-yl}-[4-(1H-indol-3-yl)-piperidin-1-yl]-acetic acid]	0.002	0.01	–	–	–
O=C(O)C(C1CCN(C(=O)/C=C/c2ccc(F)cc2)CC1)N1CCC(c2c[nH]c3ccccc23)CC1 (centres unmarked) [Cpd 77, {1-[(2E)-3-(4-fluoro-phenyl)-acryloyl]-piperidin-4-yl}-[4-(1H-indol-3-yl)-piperidin-1-yl]-acetic acid]	0.07	0.06	–	–	–
CC(C)(C)OC(=O)Nc1ccc2[nH]cc(C3CCN(C(C(=O)O)C4CCN(C(=O)/C=C/c5cc(F)c(F)c(F)c5)CC4)CC3)c2c1 (centres unmarked) [Cpd 81]	0.03	0.03	–	–	–
O=C(O)C(C1CCN(C(=O)Nc2cccc(Br)c2)CC1)N1CCC(c2c[nH]c3ccccc23)CC1 (centres unmarked) [Cpd 85, [1-(3-bromo-phenylcarbamoyl)-piperidin-4-yl]-[4-(1H-indol-3-yl)-piperidin-1-yl]-acetic acid]	0.17	0.19	–	–	–
O=C(O)C(C1CCN(C(=O)Nc2cccc(Cl)c2)CC1)N1CCC(c2c[nH]c3ccccc23)CC1 (centres unmarked) [Cpd 86, [1-(3-chloro-phenylcarbamoyl)-piperidin-4-yl]-[4-(1H-indol-3-yl)-piperidin-1-yl]-acetic acid]	0.21	0.28	–	–	–
COc1ccc2[nH]cc(C3CCN(C(C(=O)O)C4CCN(C(=O)Nc5ccc(Cl)c(Cl)c5)CC4)CC3)c2c1 (centres unmarked) [Cpd 94, [1-(3,4-dichloro-phenylcarbamoyl)-piperidin-4-yl]-[4-(5-methoxy-1H-indol-3-yl)-piperidin-1-yl]-acetic acid]	0.01	0.01	–	–	–
COc1ccc2c(C3CCN(C(C(=O)O)C4CCN(C(=O)Nc5ccc(Cl)c(Cl)c5)CC4)CC3)c[nH]c2c1 (centres unmarked) [Cpd 95, [1-(3,4-dichloro-phenylcarbamoyl)-piperidin-4-yl]-[4-(6-methoxy-1H-indol-3-yl)-piperidin-1-yl]-acetic acid]	0.02	0.02	–	–	–
OCC(C1CCN(C(=S)Nc2ccc(Cl)c(Cl)c2)CC1)N1CCC(c2c[nH]c3ccccc23)CC1 (centres unmarked) [Cpd 122, 4-{2-hydroxy-1-[4-(1H-indol-3-yl)-piperidin-1-yl]-ethyl}-piperidine-1-carbothioic acid (3,4-dichloro-phenyl)-amide]	0.04	–	0.0008	–	–
OCC(C1CCN(C(=S)Nc2cc(F)cc(F)c2)CC1)N1CCC(c2c[nH]c3ccccc23)CC1 (centres unmarked) [Cpd 124, 4-{2-hydroxy-1-[4-(1H-indol-3-yl)-piperidin-1-yl]-ethyl}-piperidine-1-carbothioic acid (3,5-difluoro-phenyl)-amide]	0.13	–	0.07	–	–
N=C(NC(=O)c1ccc(Cl)c(Cl)c1)N1CCC(C(CO)N2CCC(c3c[nH]c4ccccc34)CC2)CC1 (centres unmarked) [Cpd 128, 3,4-dichloro-N-[(4-{2-hydroxy-1-[4-(1H-indol-3-yl)-piperidin-1-yl]-ethyl}-piperidin-1-yl)-imino-methyl]-benzamide]	0.32	–	0.02	–	–
O=C(O)C(C1CCN(C(=O)/C=C/c2cc(F)c(F)c(F)c2)CC1)N1CCC(c2c[nH]c3ncccc23)CC1 (centres unmarked) [Cpd 151, [4-(1H-pyrrolo[2,3-b]pyridin-3-yl)-piperidin-1-yl]-{1-[(2E)-3-(3,4,5-trifluoro-phenyl)-acryloyl]-piperidin-4-yl}-acetic acid]	0.01	0.03	–	–	–

More lines, main results first:

IC50 [1] [µM]	IC50 [2] [µM]	IC50 [3] [µM]	inhibition at 25 µM ([1]; read-out: Inhibition of MCP-1 Binding, percent inhibition) [%]	SMILES	inhibition at 25 µM [3] [%]
0.003	0.02	–	–	Cc1cccc(/C=C/C(=O)N2CCC(C(C(=O)O)N3CCC(c4c[nH]c5ccccc45)CC3)CC2)c1 (centres unmarked) [Cpd 70, [4-(1H-indol-3-yl)-piperidin-1-yl]-{1-[(2E)-3-m-tolyl-acryloyl]-piperidin-4-yl}-acetic acid]	–
0.02	0.007	–	–	O=C(O)C(C1CCN(C(=O)/C=C/c2cccc(Br)c2)CC1)N1CCC(c2c[nH]c3ccccc23)CC1 (centres unmarked) [Cpd 71, {1-[(2E)-3-(3-bromo-phenyl)-acryloyl]-piperidin-4-yl}-[4-(1H-indol-3-yl)-piperidin-1-yl]-acetic acid]	–
0.004	0.009	–	–	O=C(O)C(C1CCN(C(=O)/C=C/c2ccc(C(F)(F)F)c(F)c2)CC1)N1CCC(c2c[nH]c3ccccc23)CC1 (centres unmarked) [Cpd 75, {1-[(2E)-3-(3-fluoro-4-trifluoromethyl-phenyl)-acryloyl]-piperidin-4-yl}-[4-(1H-indol-3-yl)-piperidin-1-yl]-acetic acid]	–
0.04	0.1	–	–	O=C(O)C(C1CCN(C(=O)/C=C/c2cccc([N+](=O)[O-])c2)CC1)N1CCC(c2c[nH]c3ccccc23)CC1 (centres unmarked) [Cpd 92, [4-(1H-indol-3-yl)-piperidin-1-yl]-{1-[(2E)-3-(3-nitro-phenyl)-acryloyl]-piperidin-4-yl}-acetic acid]	–
0.004	0.02	–	–	O=C(O)C(C1CCN(C(=O)/C=C/c2cccc(Cl)c2)CC1)N1CCC(c2c[nH]c3ccccc23)CC1 (centres unmarked) [Cpd 93, {1-[(2E)-3-(3-chloro-phenyl)-acryloyl]-piperidin-4-yl}-[4-(1H-indol-3-yl)-piperidin-1-yl]-acetic acid]	–
0.08	–	0.001	–	OCC(C1CCN(C(=S)Nc2cccc(C(F)(F)F)c2)CC1)N1CCC(c2c[nH]c3ccccc23)CC1 (centres unmarked) [Cpd 120, 4-{2-hydroxy-1-[4-(1H-indol-3-yl)-piperidin-1-yl]-ethyl}-piperidine-1-carbothioic acid (3-trifluoromethyl-phenyl)-amide]	–
–	–	–	56	COc1ccc(C2CCN(C(CO)C3CCN(C(=O)c4cc5cc(Cl)ccc5o4)CC3)CC2)cc1 (centres unmarked) [Cpd 160, (5-chloro-benzofuran-2-yl)-(4-{2-hydroxy-1-[4-(4-methoxy-phenyl)-piperidin-1-yl]-ethyl}-piperidin-1-yl)-methanone]	33
0.15	0.45	–	–	O=C(/C=C/c1cc(F)cc(F)c1)N1CCC(C(CO)N2CCC(c3nc4ccccc4[nH]3)CC2)CC1 (centres unmarked) [Cpd 174, (2E)-1-(4-{1-[4-(1H-benzoimidazol-2-yl)-piperidin-1-yl]-2-hydroxy-ethyl}-piperidin-1-yl)-3-(3,5-difluoro-phenyl)-propenone]	–
1.6	–	–	–	O=C(/C=C/c1cccc(C(F)(F)F)c1)N1CCC(C(CO)N2CCC(c3ccncc3)CC2)CC1 (centres unmarked) [Cpd 184, (2E)-1-{4-[2-hydroxy-1-(3,4,5,6-tetrahydro-2H-[4,4′]bipyridinyl-1-yl)-ethyl]-piperidin-1-yl}-3-(3-trifluoromethyl-phenyl)-propenone]	14
0.37	–	1.9	–	CC(=O)NCC(C1CCN(C(=O)/C=C/c2cccc(C(F)(F)F)c2)CC1)N1CCC(c2c[nH]c3ccccc23)CC1 (centres unmarked) [Cpd 218]	–
0.34	–	–	–	CC(=O)NCC(C1CCN(C(=O)/C=C/c2ccsc2)CC1)N1CCC(c2c[nH]c3ccccc23)CC1 (centres unmarked) [Cpd 219]	52
